Measured values taken from US20100076017A1, “SITAMAQUINE TOSYLATE FOR THE TREATMENT OF LEISHMANIASIS” (priority 2006, published 2010).
Structures can show the parent of a compound that is named as a salt.

Test: hygroscopicity / developability characteristics of the salt form
Format: physicochemical
Conditions: solid salt form; poor developability characteristics
Source text: This means that reproducibility of standard batches of drug is very difficult, and that the drug would have a very short shelf life in those countries where it is particularly needed.

relative humidity at which the salt is hygroscopic: about 60 % relative humidity
SMILES: CCN(CC)CCCCCCNc1cc(OC)cc2c(C)ccnc12 [dihydrochloride salt, N,N-diethyl-N′-(6-methoxy-4-methyl-8-quinolinyl)-1,6-hexane diamine]
